Data from patent publication US12780800B1, “Triazole-pyridinyl substituted azacyclohexyl acetic acid compounds as LPA receptor antagonists” (Viva Star Biosciences Limited, priority 2021, dated 2022).

Target: T1, LPA1 (Homo sapiens, UniProt Q92633)
T1 construct: ProLink (PK) beta-galactosidase enzyme-fragment tag; host or cells: CHO-K1
Assay: LPA1 calcium flux assay (LPA1 functional antagonist assay)
Assay type: cell-based
Details: PathHunter CHO-K1 EDG2 β-Arrestin cell line; calcium indicator dye; stimulated with EC80 concentration of LPA; FLIPR Tetra
In short: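 The LPA1 antagonist readout was intracellular calcium flux, and IC50 values were calculated from it. Plates stood 30 min at RT after compound addition. Cells, grown overnight, had first taken up calcium dye over 45 min at 37 °C.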

T1 sequence (Q92633 whole entry, the tested form may be a part): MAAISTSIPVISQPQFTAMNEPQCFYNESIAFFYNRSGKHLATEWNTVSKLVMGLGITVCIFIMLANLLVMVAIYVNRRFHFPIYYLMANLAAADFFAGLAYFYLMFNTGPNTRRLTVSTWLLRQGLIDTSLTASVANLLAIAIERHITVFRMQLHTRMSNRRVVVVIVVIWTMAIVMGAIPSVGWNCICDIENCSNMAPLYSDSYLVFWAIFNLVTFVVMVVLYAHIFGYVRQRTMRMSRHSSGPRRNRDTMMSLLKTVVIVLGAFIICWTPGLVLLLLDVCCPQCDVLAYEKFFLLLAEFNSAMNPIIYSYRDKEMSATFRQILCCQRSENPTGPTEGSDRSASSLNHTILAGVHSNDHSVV

| SMILES | IC50 [nM] |
| --- | --- |
| CCCn1nc(OCc2c(-c3ccc(N4C[C@@H](CC(=O)O)CC(F)(F)C4)c(C)n3)nnn2C)ccc1=O [Example 108, (S)-2-(5,5-difluoro-1-(2-methyl-6-(1-methyl-5-(((6-oxo-1-propyl-1,6 dihydropyridazin-3-yl)oxy)methyl)-1H-1,2,3-triazol-4-yl)pyridin-3-yl)piperidin-3-yl)acetic acid] | 500 to 5000 |
| CCc1nc(-c2cnn(C)c2Cn2cc(C3CC3)ccc2=O)ncc1N1C[C@@H](CC(=O)O)CC(F)(F)C1 [Example 39, (S)-2-(1-(2-(5-((5-cyclopropyl-2-oxopyridin-1(2H)-yl)methyl)-1-methyl-1H-pyrazol-4-yl)-4-ethylpyrimidin-5-yl)-5,5-difluoropiperidin-3-yl)acetic acid] | 500 to 5000 |
| CCCc1ccc(=O)n(Cc2c(-c3ccc(N4CCC[C@@H](CC(=O)O)C4)c(CC)n3)nnn2C)c1 [Example 23, (S)-2-(1-(2-ethyl-6-(1-methyl-5-((2-oxo-5-propylpyridin-1(2H)-yl)methyl)-1H-1,2,3-triazol-4-yl)pyridin-3-yl)piperidin-3-yl)acetic acid] | > 5000 |
| CCc1nc(-c2nnn(C)c2CNc2nncc(C3CC3)n2)ccc1N1C[C@H](CC(=O)O)CC(F)(F)C1 (stereo in doubt) [Example 112, (R)-2-(1-(6-(5-(((5-cyclopropyl-1,2,4-triazin-3-yl)amino)methyl)-1-methyl-1H-1,2,3-triazol-4-yl)-2-ethylpyridin-3-yl)-5,5-difluoropiperidin-3-yl)acetic acid] | 500 to 5000 |
| CCCN(C)C(=O)OCc1c(-c2ccc(N3C[C@@H](CC(=O)O)CC(F)(F)C3)c(CC)n2)nnn1C [Example 146, (S)-2-(1-(2-ethyl-6-(1-methyl-5-(((methyl(propyl)carbamoyl)oxy)methyl)-1H-1,2,3-triazol-4-yl)pyridin-3-yl)-5,5-difluoropiperidin-3-yl)acetic acid] | > 5000 |
| CCc1nc(-c2nnn(C)c2COc2nccc(C3CCC3)n2)ccc1N1CC(CC(=O)O)CCC1=O (single isomer, unassigned) [Example 92, (S) or (R)-2-(1-(6-(5-(((4-cyclobutylpyrimidin-2-yl)oxy)methyl)-1-methyl-1H-1,2,3-triazol-4-yl)-2-ethylpyridin-3-yl)-6-oxopiperidin-3-yl)acetic acid] | > 5000 |
| CCCc1cnc(=O)n(Cc2c(-c3ncc(N4C[C@@H](CC(=O)O)CC(F)(F)C4)c(CC)n3)cnn2C)c1 [Example 38, (S)-2-(1-(4-ethyl-2-(1-methyl-5-((2-oxo-5-propylpyrimidin-1(2H)-yl)methyl)-1H-pyrazol-4-yl)pyrimidin-5-yl)-5,5-difluoropiperidin-3-yl)acetic acid] | > 5000 |
| CCCc1cccn(Cc2c(-c3ccc(N4C[C@@H](CC(=O)O)CC(F)(F)C4)c(C)n3)nnn2C)c1=O [Example 5, (S)-2-(5,5-difluoro-1-(2-methyl-6-(1-methyl-5-((2-oxo-3-propylpyridin-1(2H)-yl)methyl)-1H-1,2,3-triazol-4-yl)pyridin-3-yl)piperidin-3-yl)acetic acid] | > 5000 |
| Cc1nc(-c2nnn(C)c2CN2C[C@H](CC3CC3)N(C)C2=O)ccc1N1C[C@H](CC(=O)O)CC(F)(F)C1 [Example 64, 2-((R)-1-(6-(5-(((S)-4-(cyclopropylmethyl)-3-methyl-2-oxoimidazolidin-1-yl)methyl)-1-methyl-1H-1,2,3-triazol-4-yl)-2-methylpyridin-3-yl)-5,5-difluoropiperidin-3-yl)acetic acid] | 500 to 5000 |
| CCc1nc(-c2nnn(C)c2Cn2cc(CC(C)C)ccc2=O)ccc1CN1CC(C(=O)O)CC(F)(F)C1 (single isomer, unassigned) [Example 155, (R) or (S)-1-((2-ethyl-6-(5-((5-isobutyl-2-oxopyridin-1(2H)-yl)methyl)-1-methyl-1H-1,2,3-triazol-4-yl)pyridin-3-yl)methyl)-5,5-difluoropiperidine-3-carboxylic acid] | 500 to 5000 |
| CCc1nc(-c2nnn(C)c2Cn2cc(C3CC3)c(C)cc2=O)ccc1N1C[C@@H](CC(=O)O)CC(F)(F)C1 [Example 18] | 500 to 5000 |
| CCCc1ccc(=O)n(Cc2c(-c3cnc(N4C[C@H](CC(=O)O)CC(F)(F)C4)cn3)nnn2C)c1 (stereo in doubt) [Example 56, (R)-2-(5,5-difluoro-1-(5-(1-methyl-5-((2-oxo-5-propylpyridin-1(2H)-yl)methyl)-1H-1,2,3-triazol-4-yl)pyrazin-2-yl)piperidin-3-yl)acetic acid] | > 5000 |
| CCc1nc(-c2nnn(C)c2COc2nccc(C3CCC3)n2)ccc1N1CCC[C@@H](CC(=O)O)C1 [Example 81, (S)-2-(1-(6-(5-(((4-cyclobutylpyrimidin-2-yl)oxy)methyl)-1-methyl-1H-1,2,3-triazol-4-yl)-2-ethylpyridin-3-yl)piperidin-3-yl)acetic acid] | > 5000 |

The remaining lines, values ahead:

| IC50 [nM] | SMILES |
| --- | --- |
| < 100 | CCc1nc(-c2nnn(C)c2Cn2nncc2CC2CC2)ccc1N1C[C@@H](CC(=O)O)CC(F)(F)C1 [Example 132, (S)-2-(1-(6-(5-((5-(cyclopropylmethyl)-1H-1,2,3-triazol-1-yl)methyl)-1-methyl-1H-1,2,3-triazol-4-yl)-2-ethylpyridin-3-yl)-5,5-difluoropiperidin-3-yl)acetic acid] |
| < 100 | Cc1nc(-c2onc(C)c2COc2cc(-n3cccn3)ncn2)ccc1N1C[C@@H](CC(=O)O)CC(F)(F)C1 [Example 105, (S)-2-(1-(6-(4-(((6-(1H-pyrazol-1-yl)pyrimidin-4-yl)oxy)methyl)-3-methylisoxazol-5-yl)-2-methylpyridin-3-yl)-5,5-difluoropiperidin-3-yl)acetic acid] |
| 100 to 500 | Cn1nnc(-c2ccc(N3CCC[C@H](CC(=O)O)C3)c(C(F)F)n2)c1Cn1cc(CC2CC2)nn1 [Example 169, (R)-2-(1-(6-(5-((4-(cyclopropylmethyl)-1H-1,2,3-triazol-1-yl)methyl)-1-methyl-1H-1,2,3-triazol-4-yl)-2-(difluoromethyl)pyridin-3-yl)piperidin-3-yl)acetic acid] |
| 100 to 500 | CCc1nc(-c2nnn(C)c2COc2noc(C3CCC3)n2)ccc1N1C[C@@H](CC(=O)O)CC(F)(F)C1 [Example 119, (S)-2-(1-(6-(5-(((5-cyclobutyl-1,2,4-oxadiazol-3-yl)oxy)methyl)-1-methyl-1H-1,2,3-triazol-4-yl)-2-ethylpyridin-3-yl)-5,5-difluoropiperidin-3-yl)acetic acid] |
| < 100 | CCc1nc(-c2nnn(C)c2Cn2cc(OC3CC3)ccc2=O)ccc1N1C[C@@H](CC(=O)O)CC(F)(F)C1 [Example 24, (S)-2-(1-(6-(5-((5-cyclopropoxy-2-oxopyridin-1(2H)-yl)methyl)-1-methyl-1H-1,2,3-triazol-4-yl)-2-ethylpyridin-3-yl)-5,5-difluoropiperidin-3-yl)acetic acid] |
| < 100 | CCc1nc(-c2nnn(C)c2Cn2cc(C3CCC3)ccc2=O)ccc1N1C[C@@H](CC(=O)O)CC(F)(F)C1 [Example 17, (S)-2-(1-(6-(5-((5-cyclobutyl-2-oxopyridin-1(2H)-yl)methyl)-1-methyl-1H-1,2,3-triazol-4-yl)-2-ethylpyridin-3-yl)-5,5-difluoropiperidin-3-yl)acetic acid] |
| < 100 | CCc1nc(-c2nnn(C)c2Cn2cc(CC3CCC3)ccc2=O)ccc1N1C[C@@H](CC(=O)O)CC(F)(F)C1 [Example 14, (S)-2-(1-(6-(5-((5-(cyclobutylmethyl)-2-oxopyridin-1(2H)-y)methyl)-1-methyl-1H-1,2,3-triazol-4-yl)-2-ethylpyridin-3-yl)-5,5-difluoropiperidin-3-yl)acetic acid] |
| 100 to 500 | CCc1nc(-c2nnn(C)c2Cn2nc(C3CC3)ccc2=O)ccc1N1C[C@@H](CC(=O)O)CC(F)(F)C1 [Example 36, (S)2-(1-(6-(5-((3-cyclopropyl-6-oxopyridazin-1(6H)-yl)methyl)-1-methyl-1H-1,2,3-triazol-4-yl)-2-ethylpyridin-3-yl)-5,5-difluoropiperidin-3-yl)acetic acid] |
| < 100 | Cc1nc(-c2nnn(C)c2COc2cc(-n3ccnn3)ncn2)ccc1N1C[C@@H](CC(=O)O)CC(F)(F)C1 [Example 99, (S)-2-(1-(6-(5-(((6-(1H-1,2,3-triazol-1-yl)pyrimidin-4-yl)oxy)methyl)-1-methyl-1H-1,2,3-triazol-4-yl)-2-methylpyridin-3-yl)-5,5-difluoropiperidin-3-yl)acetic acid] |
| 100 to 500 | CCc1nc(-c2cnn(C)c2Cn2nncc2CC2CC2)ncc1N1C[C@@H](CC(=O)O)CC(F)(F)C1 [Example 134, (S)-2-(1-(2-(5-((5-(cyclopropylmethyl)-1H-1,2,3-triazol-1-yl)methyl)-1-methyl-1H-pyrazol-4-yl)-4-ethylpyrimidin-5-yl)-5,5-difluoropiperidin-3-yl)acetic acid] |
| < 100 | CCCc1ccc(=O)n(Cc2c(-c3ccc(N4CCC[C@H](CC(=O)O)C4)c(C(F)(F)F)n3)nnn2C)c1 [Example 58, 2-[(3R)-1-(6-{1-methyl-5-[(2-oxo-5-propyl-1,2-dihydropyridin-1-yl)methyl]-1H-1,2,3-triazol-4-yl}-2-(trifluoromethyl)pyridin-3-yl)piperidin-3-yl]acetic acid] |
| 100 to 500 | CCc1nc(-c2nnn(C)c2Cn2ccc(CC3CC3)c(C)c2=O)ccc1N1C[C@@H](CC(=O)O)CC(F)(F)C1 [Example 10, (S)-2-(1-(6-(5-((4-(cyclopropylmethyl)-3-methyl-2-oxopyridin-1(2H)-yl)methyl)-1-methyl-1H-1,2,3-triazol-4-yl)-2-ethylpyridin-3-yl)-5,5-difluoropiperidin-3-yl)acetic acid] |
